These results are taken from US20180099937A1, “NOVEL ARYL-CYANOGUANIDINE COMPOUNDS” (Bayer Pharma Aktiengesellschaft, priority 2015, published 2018).

For test [1], the target named is T1, SMYD2 (Homo sapiens, UniProt Q9NRG4). Nature of the test: In Cell Western (ICW) cell-based assay for detection of SMYD2 methylation activity. The following applies: SMYD2 overexpressing KYSE-150 cells, 72 h treatment, p53K370me1 signal normalized to DRAQ5; read-out: IC50 [mol/l] (ICW assay). Details: expressed in transfected cells; host or cells: KYSE-150 (human esophageal carcinoma, DSMZ ACC 375). From the text: 1.2 Cell-Based Assay for Detection of SMYD2 methylation Activity
For the detection of SMYD2 cellular methylation activity an In Cell Western (ICW) assay was established. This assay allows rapid processing of multiple samples for SMYD2 methylation derived immunofluorescence signals, with normalization to cell number via the use of the nucleic acid dye DRAQS. KYSE-150 cells (human esophageal carcinoma cell line; DSMZ-German Collection of Microorganisms and Cell Cultures; No: ACC 375) have been stably transfected with a construct expressing wild-type SMYD2 (NCBI Reference Sequence: NP_064582.2). To detect SMYD2-mediated methylation signals in cells, a customized antibody directed against mono-methylated lysine 370 on protein p53 (p53K370me1) was used. The polyclonal antibody was generated (Eurogentec) against a p53 peptide containing the mono-methylated K370 epitope as described elsewhere (Huang et al., Nature, 2006, 444(7119):629-32).
For conducting the ICW assay 5000 SMYD2 overexpressing KYSE-150 cells/well were seeded in 96-well plates (SIGMA) and cultivated for 24 h. As a control for maximal inhibition of ectopic methylation activity, non-transfected KYSE-150 cells were used. Cells were grown in 49% RPMI 1640 with 49% Ham's F12 media supplemented with 2% heat inactivated fetal calf serum (FCS). For determination of SMYD2 inhibitory activity, cells were treated for 72 h in the presence of compounds or with DMSO. Cells were treated with compounds to be tested at a final concentration range varying from 3.9×10^−8 to 5×10^−6 M. Media was removed and 3.7% (w/v) formaldehyde in PBS was added for 20 min. After two washes with phosphate buffered saline (PBS), 0.25% (v/v) Triton X100 in PBS was added for 15 minutes of permeabilization. After one washing step with PBS, cells were blocked for 1 h with 5% (w/v) non-fat dry milk in PBS. Fixed cells were exposed to primary […] antibody in 5% non-fat dry milk in PBS for 24 h. One row of cells on each plate was not exposed to p53K370me1 antibody and was reserved for background control measurements. The wells were washed three times with PBS, then secondary IR800 conjugated antibody (LI-COR) and DNA-intercalating dye, 5 μM DRAQ5 (LI-COR) were added for 3 h. After 5 washes with PBS, the fluorescence in each well was measured on an Odyssey (LI-COR) scanner at 800 nm (p53K370me1 signal; 764 nm excitation) and 700 nm (DRAQS signal; 683 nm excitation). Fluorescence intensity was quantified and normalized to background and DRAQ5 signals. IC50 values were calculated by fitting the normalized inhibition data to a 4-parameter logistic equation (Minimum, Maximum, IC50, Hill; Y=Max+(Min−Max)/(1+(X/IC50)Hill)) for each tested compound. For IC50 determination C0 (=no inhibition) was defined as the signal measured for DMSO treated controls. Ci (maximal inhibition) was defined as the signal measured for non SMYD2 overexpressing KYSE150 cells.

Test [2] has as its target T1, SMYD2. Nature of the test: Scintillation Proximity Assay (SPA) for detection of SMYD2 enzymatic inhibition. Details: The SMYD2 full length enzyme was produced in-house by expression (with an N-terminal 6× His tag) in E. coli; 6xHis (N); made in house; host or cells: E. coli. The conditions noted are these: SMYD2 full length enzyme, p53 Peptide substrate 1.0 μM, 3H-SAM 60 nM; read-out: IC50 [mol/l] (SPA Assay). The test is classed as biochemical. A digest of the protocol: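 Full-length N-His SMYD2 from E. coli (typically 3 nM) was preincubated with compounds (0.1 nM–20 μM) for 15 min, then reacted 30 min at 22° C with 60 nM 3H-SAM and 1.0 μM biotinylated p53 peptide in Tris pH 9.0. Streptavidin SPA beads read methylation, and IC50 came from a 4-parameter fit.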
In general terms: In a scintillation proximity assay essentially only radioactivity close to the scintillant gives light.

T1 sequence (Q9NRG4 whole entry): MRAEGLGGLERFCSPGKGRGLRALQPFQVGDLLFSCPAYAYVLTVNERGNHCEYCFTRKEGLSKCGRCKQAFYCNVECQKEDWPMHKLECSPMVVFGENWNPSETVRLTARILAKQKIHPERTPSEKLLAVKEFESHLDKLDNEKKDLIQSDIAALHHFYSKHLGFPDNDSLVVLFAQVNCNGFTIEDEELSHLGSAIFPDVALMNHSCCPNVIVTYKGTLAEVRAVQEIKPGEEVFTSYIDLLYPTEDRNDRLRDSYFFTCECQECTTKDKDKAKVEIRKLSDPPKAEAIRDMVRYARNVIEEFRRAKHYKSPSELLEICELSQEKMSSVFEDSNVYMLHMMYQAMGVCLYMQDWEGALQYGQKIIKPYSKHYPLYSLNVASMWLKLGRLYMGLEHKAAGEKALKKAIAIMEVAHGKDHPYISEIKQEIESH

For `CCN(C(=O)[C@H]1CCCN1)C1CN(/C(=N\C#N)Nc2cc(OC)ccc2Cl)N=C1c1ccc(Cl)c(Cl)c1` (mixture of isomers) [Example 32, N-{1-[N-(2-Chloro-5-methoxyphenyl)-N′-cyanocarbamimidoyl]-3-(3,4-dichlorophenyl)-4,5-dihydro-1H-pyrazol-4-yl}-N-ethyl-D-prolinamide], the results for the IC50 at SMYD2 [1] and at SMYD2 [2] were 268 nM and 38.4 nM, respectively.
Regarding `C[C@]1(C(=O)NC2CN(/C(=N\C#N)Nc3cccc(OC(F)F)c3)N=C2c2ccc(Cl)c(Cl)c2)CCCN1` (mixture of isomers) [Example 6, N-[1-{N′-Cyano-N-[3-(difluoromethoxy)phenyl]carbamimidoyl}-3-(3,4-dichlorophenyl)-4,5-dihydro-1H-pyrazol-1-yl]-2-methyl-D-prolinamide], the results for the IC50 at SMYD2 [1] and at SMYD2 [2] were 104 nM and 11.3 nM, respectively.
For `CCN(C(=O)[C@H]1CCCN1)C1CN(/C(=N\C#N)Nc2cccc(OC(F)F)c2)N=C1c1ccc(Cl)c(Cl)c1` (single isomer, unassigned) [Example 1.1, N-[1-{N′-Cyano-N-[3-(difluoromethoxy)phenyl]carbamimidoyl}-3-(3,4-dichlorphenyl)-4,5-dihydro-1H-pyrazol-4-yl]-N-ethyl-D-prolinamide], the IC50 turned out to be 2.6 nM on SMYD2 [1] and 4.45 nM at SMYD2 [2].
On to `CCN(C(=O)[C@H]1CCCN1)C1CN(/C(=N\C#N)Nc2cccc(OC(F)F)c2F)N=C1c1ccc(Cl)c(Cl)c1` (single isomer, unassigned) [Example 13.1, N-[1-{N′-Cyano-N-[3-(difluoromethoxy)-2-fluorophenyl]carbamimidoyl}-3-(3,4-dichlorophenyl)-4,5-dihydro-1H-pyrazol-4-yl]-N-ethyl-D-prolinamide], for which the values for the IC50 on SMYD2 [1] and on SMYD2 [2] were 20.3 nM and 15.6 nM, respectively.
For the molecule `CCN(C(=O)[C@H]1C[C@@H](F)CN1)C1CN(/C(=N\C#N)Nc2cccc(OC(F)F)c2)N=C1c1ccc(Cl)c(C)c1` (mixture of isomers) [Example 38, (4R)-N-[3-(4-Chloro-3-methylphenyl)-1-{N′-cyano-N-[3-(difluoromethoxy)phenyl]carbamimidoyl}-4,5-dihydro-1H-pyrazol-4-yl]-N-ethyl-4-fluoro-D-prolinamide], the IC50 on SMYD2 [1] is 18.8 nM; at SMYD2 [2] it was 387 nM.
`CCN(C(=O)[C@H]1CCCN1)C1CN(/C(=N\C#N)Nc2cccc(OC(F)(F)F)c2F)N=C1c1ccc(Cl)c(Cl)c1` (single isomer, unassigned) [Example 21.1, N-[1-{N′-Cyano-N-[2-fluoro-3-(trifluoromethoxy)phenyl]carbamimidoyl}-3-(3,4-dichlorophenyl)-4,5-dihydro-1H-pyrazol-4-yl]-N-ethyl-D-prolinamide]: the IC50 on SMYD2 [1] turned out to be 16.8 nM; on SMYD2 [2] it was 28 nM.
In the same order, the values of `CCN(C(=O)[C@H]1CCN1)C1CN(/C(=N\C#N)Nc2cccc(OC(F)F)c2)N=C1c1ccc(Cl)c(C)c1` (mixture of isomers) [Example 36, (2R)-N-[3-(4-Chloro-3-methylphenyl)-1-{N′-cyano-N-[3-(difluoromethoxy)phenyl]-carbamimidoyl}-4,5-dihydro-1H-pyrazol-4-yl]-N-ethylazetidine-2-carboxamide] are 3.87 nM and 8.03 nM.
For the molecule `CCN(C(=O)c1cccc(=O)[nH]1)C1CN(/C(=N\C#N)Nc2cccc(OC(F)F)c2)N=C1c1ccc(Cl)c(Cl)c1` (racemic) [Example 5, rac-N-[1-{N′-Cyano-N-[3-(difluoromethoxy)phenyl]carbamimidoyl}-3-(3,4-dichlorophenyl)-4,5-dihydro-1-pyrazol-4-yl]-N-ethyl-6-oxo-1,6-dihydropyridine-2-carboxamide], the IC50 was 720 nM at SMYD2 [1] and 793 nM on SMYD2 [2].
For the molecule `CCN(C(=O)[C@H]1C[C@@H](F)CN1)C1CN(/C(=N\C#N)Nc2cccc(OC(F)F)c2)N=C1c1ccc(Cl)c(C)c1` (single isomer, unassigned) [Example 38.1], the IC50 is 2.55 nM on SMYD2 [1] and 30 nM on SMYD2 [2].
